The text below walks through data of paper PMC11303640, “ALK5/VEGFR2 dual inhibitor TU2218 alone or in combination with immune checkpoint inhibitors enhances immune-mediated antitumor effects” (Cancer Immunology, Immunotherapy : CII, 2024).

The target in this test is T1, VEGFR2 (Homo sapiens, UniProt P35968).
T1 construct: gene KDR
Nature of the test: kinase enzyme assay (Reaction Biology), 10-point dose response, […] ATP. It is filed as biochemical.

What is called IC50 is the concentration needed to halve the response being measured.

Molecules are shown by their SMILES.

T1 sequence (P35968 20-1356): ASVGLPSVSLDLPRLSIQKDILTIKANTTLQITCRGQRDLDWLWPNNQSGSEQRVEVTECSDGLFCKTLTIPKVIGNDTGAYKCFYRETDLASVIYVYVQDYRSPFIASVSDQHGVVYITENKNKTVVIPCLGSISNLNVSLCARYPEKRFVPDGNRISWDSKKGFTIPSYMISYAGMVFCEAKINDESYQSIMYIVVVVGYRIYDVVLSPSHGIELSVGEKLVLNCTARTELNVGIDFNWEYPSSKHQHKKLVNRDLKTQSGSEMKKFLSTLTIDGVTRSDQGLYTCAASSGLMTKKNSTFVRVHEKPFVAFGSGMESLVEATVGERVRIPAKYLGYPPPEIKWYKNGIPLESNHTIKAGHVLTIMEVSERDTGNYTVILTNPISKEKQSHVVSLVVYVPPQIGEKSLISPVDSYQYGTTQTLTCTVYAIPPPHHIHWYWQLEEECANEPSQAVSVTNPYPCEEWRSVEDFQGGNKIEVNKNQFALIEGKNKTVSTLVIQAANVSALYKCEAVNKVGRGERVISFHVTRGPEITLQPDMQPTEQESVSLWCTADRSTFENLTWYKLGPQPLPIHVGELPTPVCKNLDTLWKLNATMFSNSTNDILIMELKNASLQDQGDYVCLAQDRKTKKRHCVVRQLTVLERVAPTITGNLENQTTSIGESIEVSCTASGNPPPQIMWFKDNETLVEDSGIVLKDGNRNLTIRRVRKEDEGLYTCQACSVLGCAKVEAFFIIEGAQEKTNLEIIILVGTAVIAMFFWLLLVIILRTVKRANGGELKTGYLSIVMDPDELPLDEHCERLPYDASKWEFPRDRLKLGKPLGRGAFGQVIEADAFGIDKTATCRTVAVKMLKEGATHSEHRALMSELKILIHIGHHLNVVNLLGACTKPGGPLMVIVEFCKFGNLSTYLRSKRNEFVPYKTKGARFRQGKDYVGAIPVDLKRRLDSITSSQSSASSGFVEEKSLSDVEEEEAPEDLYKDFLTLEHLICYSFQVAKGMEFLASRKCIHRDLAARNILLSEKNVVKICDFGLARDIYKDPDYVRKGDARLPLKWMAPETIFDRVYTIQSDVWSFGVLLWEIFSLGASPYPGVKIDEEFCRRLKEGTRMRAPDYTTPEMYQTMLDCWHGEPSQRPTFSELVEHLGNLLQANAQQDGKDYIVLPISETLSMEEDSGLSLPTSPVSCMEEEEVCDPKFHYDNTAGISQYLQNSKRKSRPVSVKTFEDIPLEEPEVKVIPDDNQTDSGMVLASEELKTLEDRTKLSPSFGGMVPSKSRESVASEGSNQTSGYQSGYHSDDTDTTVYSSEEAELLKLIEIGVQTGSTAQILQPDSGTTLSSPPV

Consider `Cc1cccc(-c2nc3n(c2-c2ccc4ncnn4c2)CCN3)n1` [TU2218], for which the IC50 turned out to be 4.9 nM.
